Data: ChEMBL document CHEMBL5214933, “Discovery of Selenium-Containing STING Agonists as Orally Available Antitumor Agents” (J Med Chem, 2022)
Calls of active or inactive are those of the source. The rule behind the calls is not given here.

Columns and labels:
[1] = Clearance in Sprague-Dawley rat at 5 mg/kg, iv measured for 1440 mins by LC-MS/MS analysis; assay type: ADME, organism-based; conditions: in vivo
[2] = molecular target: T1, Stimulator of interferon genes protein (Homo sapiens, UniProt Q86WV6); experiment: Agonist activity at STING in human THP-1 cells assessed as increase in IFNbeta mRNA expression at 10 uM measured after 3 hrs by qRT-PCR analysis; assay type: cell-based; conditions: filed as agonist
[3] = molecular target: T1, Stimulator of interferon genes protein; experiment: Agonist activity at STING in human THP-1 cells harboring IRF-inducible luciferase reporter construct assessed as increase in TBK1 phosphorylation at 50 uM measured after 1 hrs by Western blot analysis; assay type: cell-based; conditions: filed as agonist

T1 sequence (Q86WV6 whole entry): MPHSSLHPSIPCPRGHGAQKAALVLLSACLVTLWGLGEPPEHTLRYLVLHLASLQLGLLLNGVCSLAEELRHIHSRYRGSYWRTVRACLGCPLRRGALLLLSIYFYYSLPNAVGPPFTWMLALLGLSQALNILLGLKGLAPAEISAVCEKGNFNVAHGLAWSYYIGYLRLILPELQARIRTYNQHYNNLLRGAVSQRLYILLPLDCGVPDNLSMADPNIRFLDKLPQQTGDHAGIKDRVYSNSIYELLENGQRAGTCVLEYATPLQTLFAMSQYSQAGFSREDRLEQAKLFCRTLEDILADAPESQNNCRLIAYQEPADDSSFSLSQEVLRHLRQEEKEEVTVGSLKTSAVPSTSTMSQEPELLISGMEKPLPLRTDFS

For `CC[C@H](CC(=O)c1cc2cc(OC)c(OC)cc2[se]1)C(=O)O`, the clearance [1] was 2.83 mL/min/kg, the Activity [2] was “Active” and the Activity [3] was “Active”.
